In patent publication US20070249717A1, “PREVENTIVE/THERAPEUTIC AGENT FOR VISCERAL PAIN” (AJINOMOTO CO. INC, priority 2004, published 2007):

Key:
NK2 receptor = biological target: T1, NK2 receptor (Oryctolagus cuniculus, UniProt P79218); assay: Action on NK2 receptor: [βAla^8]NKA(4-10)-induced contraction of isolated rabbit pulmonary artery; assay type: cell-based
T1 construct: The pulmonary artery was isolated from a rabbit; from tissue; host or cells: isolated rabbit pulmonary artery
T1 sequence (P79218 1-384): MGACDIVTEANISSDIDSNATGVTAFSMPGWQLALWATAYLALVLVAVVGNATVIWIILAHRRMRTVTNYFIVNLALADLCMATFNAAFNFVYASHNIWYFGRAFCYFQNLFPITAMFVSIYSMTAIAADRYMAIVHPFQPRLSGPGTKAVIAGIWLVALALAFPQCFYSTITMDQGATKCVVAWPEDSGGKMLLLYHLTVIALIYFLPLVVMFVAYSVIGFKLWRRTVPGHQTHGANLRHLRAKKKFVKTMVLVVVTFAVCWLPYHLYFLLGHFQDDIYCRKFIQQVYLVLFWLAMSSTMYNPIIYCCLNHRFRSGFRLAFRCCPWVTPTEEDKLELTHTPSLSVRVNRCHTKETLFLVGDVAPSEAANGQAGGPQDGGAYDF
Description: A test for NK2 receptor was performed according to the method reported by Emonds et al. (Emonds-Alt X., Advenier, C., Croco, T. Manara, L., Neliat, G., Poncelet, M., Proietto, V., Santucci, V., Soubrie, P., Van Broeck, D., Vilain, P., Le Fur, G. and Breliere, J. C. (1993) SR 48968, a neurokinin A (NK2) receptor antagonist Regul. Peptides. 46: 31-36). The pulmonary artery was isolated from a rabbit. The isolated tissue was hung in a solution of buffer (NaCl 118.0, KCl 4.7, MgSO4 1-2, CaCl2 2.5, KH2PO41.2, NaHCO3 25, glucose 11.0 (pH 7 4) (unit:mM) 37° C.) aerated with oxygen (95% oxygen, 5% carbon dioxide), added with benexytramine (1 μM, a receptor antagonist), propranolol (1 μM, β receptor antagonist), pyrilamine (1 μM, histamine H1 receptor antagonist), atropine (1 μM, muscarinic receptor antagonist) and metiserglde (1 μM, 5-HT2 receptor antagonist). After 60 min or more, lysine (0.3, 3, 30 mM) was added to the buffer, and the contraction of the pulmonary artery due to [βAla^8]NKA(4-10) was measured.
In Table 2, the pulmonary artery contraction by [βAla^8]NKA(4-10) was calculated as 100%.

5-HT4 receptor = conditions: cited from earlier work
[1] = test system: stress-induced colon distension rat model (visceral pain); assay: Visceral perceptual threshold in stress-induced colon distension visceral pain rat model; conditions: for visceral perceptual threshold that decreased due to the stress: stressed SD rat, from 10 min after administration, Dunnett's test
GABAB receptor = biological target: T2, GABAB receptor (Cavia porcellus, UniProt A0A286X9P6); assay: Action on GABAB receptor: electrically stimulated contraction of isolated guinea pig ileum; assay type: cell-based; conditions: for contraction (%): ileum contraction by electric stimulation calculated as 100%
T2 construct: The ileum was isolated from a guinea pig; from tissue; host or cells: isolated guinea pig ileum
Description: A test for GABAB receptor was performed according to the method reported by Kerr et al. (Kerr, D. I. B. Ong, J., Johnston, G. A. R. Abbenante, J. and Prager, R. H. (1988) 2-hydroxy-saclofen: an improved antagonist at central and peripheral GABAB receptors. Neurosci. Lett. 92: 92-96). The ileum was isolated from a guinea pig. […]
In Table 1, the ileum contraction by electric stimulation was calculated as 100%.

wrap stress rat model = conditions: in vivo; cited from earlier work

T2 sequence (A0A286X9P6 30-844): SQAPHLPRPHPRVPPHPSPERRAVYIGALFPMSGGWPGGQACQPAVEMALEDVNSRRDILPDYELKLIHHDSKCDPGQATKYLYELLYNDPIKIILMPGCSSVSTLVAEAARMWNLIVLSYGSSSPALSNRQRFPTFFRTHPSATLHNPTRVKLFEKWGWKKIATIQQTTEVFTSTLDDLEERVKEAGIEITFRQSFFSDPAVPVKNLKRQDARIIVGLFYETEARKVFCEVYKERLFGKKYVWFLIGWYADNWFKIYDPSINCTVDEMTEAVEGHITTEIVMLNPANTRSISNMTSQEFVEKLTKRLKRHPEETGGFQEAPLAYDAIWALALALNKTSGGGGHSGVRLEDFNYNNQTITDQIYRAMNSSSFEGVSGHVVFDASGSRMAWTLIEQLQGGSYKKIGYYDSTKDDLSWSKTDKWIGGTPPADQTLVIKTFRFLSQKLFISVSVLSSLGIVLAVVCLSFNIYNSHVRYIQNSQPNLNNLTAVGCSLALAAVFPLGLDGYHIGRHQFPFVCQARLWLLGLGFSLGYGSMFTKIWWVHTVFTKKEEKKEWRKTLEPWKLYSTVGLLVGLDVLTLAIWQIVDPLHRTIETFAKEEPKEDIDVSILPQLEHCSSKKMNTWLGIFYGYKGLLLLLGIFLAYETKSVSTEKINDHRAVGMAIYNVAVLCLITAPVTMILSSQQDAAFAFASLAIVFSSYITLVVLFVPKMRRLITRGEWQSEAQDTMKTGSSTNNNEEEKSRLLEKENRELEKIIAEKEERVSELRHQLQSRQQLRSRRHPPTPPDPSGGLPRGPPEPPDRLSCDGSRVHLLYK
T2 sequence (H0V741 1-820 partner): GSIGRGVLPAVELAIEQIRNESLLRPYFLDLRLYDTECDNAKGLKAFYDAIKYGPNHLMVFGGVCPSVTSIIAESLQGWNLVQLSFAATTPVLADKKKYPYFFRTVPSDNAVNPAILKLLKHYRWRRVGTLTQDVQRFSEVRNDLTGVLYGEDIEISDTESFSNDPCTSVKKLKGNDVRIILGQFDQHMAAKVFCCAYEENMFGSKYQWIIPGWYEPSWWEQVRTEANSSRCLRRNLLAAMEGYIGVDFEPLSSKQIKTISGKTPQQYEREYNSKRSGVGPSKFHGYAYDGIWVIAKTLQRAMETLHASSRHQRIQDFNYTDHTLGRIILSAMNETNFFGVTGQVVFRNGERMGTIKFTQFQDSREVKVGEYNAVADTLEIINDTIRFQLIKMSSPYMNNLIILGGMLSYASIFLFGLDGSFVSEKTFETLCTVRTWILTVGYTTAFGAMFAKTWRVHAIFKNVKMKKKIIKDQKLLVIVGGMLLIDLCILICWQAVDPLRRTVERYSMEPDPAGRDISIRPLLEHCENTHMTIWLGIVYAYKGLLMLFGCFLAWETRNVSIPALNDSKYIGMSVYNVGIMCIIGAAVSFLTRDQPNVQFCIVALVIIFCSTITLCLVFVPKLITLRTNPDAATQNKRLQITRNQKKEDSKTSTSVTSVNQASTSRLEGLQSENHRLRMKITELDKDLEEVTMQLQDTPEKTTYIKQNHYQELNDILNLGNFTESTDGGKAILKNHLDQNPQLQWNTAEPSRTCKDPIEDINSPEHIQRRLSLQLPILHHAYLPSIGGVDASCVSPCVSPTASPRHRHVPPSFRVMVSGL

contraction (%) (NK2 receptor; 3 × 10^−4 mM, agonist alone, reference set as 100%)	Compound	action at 5-HT4 receptor (5-HT4 receptor)	time for which significant increase of visceral perceptual threshold was observed ([1]; 1 g/kg or 3 g/kg orally)	visceral perceptual threshold that decreased due to the stress ([1]; 1 g/kg orally)	visceral perceptual threshold that decreased due to the stress ([1]; 3 g/kg orally)	contraction (%) (GABAB receptor; 0.3 mM)	contraction (%) (GABAB receptor; 3.0 mM)	contraction (%) (GABAB receptor; 30 mM)	ileum contraction via GABAB receptor (GABAB receptor; 0.3-30, isolated guinea pig ileum)	contraction (%) (NK2 receptor; 0.3 mM, contraction by [βAla^8]NKA(4-10) calculated as 100%)	contraction (%) (NK2 receptor; 3.0 mM, contraction by [βAla^8]NKA(4-10) calculated as 100%)	contraction (%) (NK2 receptor; 30 mM, contraction by [βAla^8]NKA(4-10) calculated as 100%)	pulmonary artery contraction via NK2 receptor (NK2 receptor; 0.3-30 mM, isolated rabbit pulmonary artery)	effect on wrap stress rat model (wrap stress rat model)
100%	[βAla^8]NKA(4-10) [reference compound]													
	NCCCC[C@H](N)C(=O)O [lysine]	5-HT4 receptor antagonist	about 2 hr	significantly increased	significantly increased	0%	−20%	−77%	suppressed the ileum contraction via GABAB receptor, in a dose-dependent manner	85%	41%	19%	suppressed the pulmonary artery contraction via NK2 receptor, in a dose-dependent manner	treatment effect
